Patent publication US8329913B2, “Carbazole derivative, solvate thereof, or pharmaceutically acceptable salt thereof” (Zeria Pharmaceutical Co., Ltd., priority 2004, dated 2012)

Target: T1, human PPARα (Homo sapiens, UniProt Q07869)
T1 construct: 1.6 kb of DNA fragment including human PPARα gene was collected from the gel; expressed in transfected cells; host or cells: CV-1 cells, transient transfection with pCI-hPPARa, pCI-hRXRa and the reporter pGL3-PPRE3-TK
T1 sequence (Q07869 1-468): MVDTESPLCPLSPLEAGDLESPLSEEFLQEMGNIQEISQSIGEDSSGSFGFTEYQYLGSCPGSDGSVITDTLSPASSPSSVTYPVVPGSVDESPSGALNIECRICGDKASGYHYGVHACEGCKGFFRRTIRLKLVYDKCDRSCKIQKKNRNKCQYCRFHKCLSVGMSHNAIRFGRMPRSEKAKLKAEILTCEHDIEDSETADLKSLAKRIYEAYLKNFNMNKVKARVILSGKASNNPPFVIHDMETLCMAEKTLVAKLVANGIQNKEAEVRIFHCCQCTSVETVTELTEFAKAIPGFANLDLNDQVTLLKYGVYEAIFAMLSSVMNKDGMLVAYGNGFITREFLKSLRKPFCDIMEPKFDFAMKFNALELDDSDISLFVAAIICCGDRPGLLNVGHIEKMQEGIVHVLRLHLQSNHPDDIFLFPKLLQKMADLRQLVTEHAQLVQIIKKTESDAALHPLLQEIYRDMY
T1 sequence (P19793 1-462 partner): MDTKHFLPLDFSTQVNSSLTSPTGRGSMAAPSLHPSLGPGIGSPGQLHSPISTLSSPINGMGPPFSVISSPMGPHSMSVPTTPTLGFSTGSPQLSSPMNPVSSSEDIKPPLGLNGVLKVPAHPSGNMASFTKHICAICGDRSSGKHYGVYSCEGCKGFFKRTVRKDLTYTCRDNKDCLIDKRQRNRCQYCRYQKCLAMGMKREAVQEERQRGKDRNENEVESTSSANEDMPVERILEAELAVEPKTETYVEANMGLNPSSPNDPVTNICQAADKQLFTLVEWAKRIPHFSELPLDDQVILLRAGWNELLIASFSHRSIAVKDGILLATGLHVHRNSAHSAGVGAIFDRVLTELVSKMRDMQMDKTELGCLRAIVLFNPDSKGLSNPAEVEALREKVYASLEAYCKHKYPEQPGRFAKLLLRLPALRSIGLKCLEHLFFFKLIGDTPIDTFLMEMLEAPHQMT
Experiment: Human PPARα agonist assay (luciferase reporter in transfected CV-1 cells)
Assay type: cell-based
Conditions: at 1 μM test compound alone; 100% = 1 μM stimulant (GW7647) only; CV-1 cells expressing human PPARα and RXRα
Procedure: CV-1 cells (96 well plate), where human PPARα and RXRα has expressed in the transient transfection of reporter plasmid (see reference 6a) were washed once with PBS (100 μL/well), and then supplemented with 100 μL/well of DMEM medium including 10% of fetal bovine serum to which test compounds at final concentrations of 10 nM, 30 nM, 100 nM, 300 nM, 1 μM, and 3 μM, as well as GW7647 (not limited to GW7647 shown as an example, but may be any PPARα agonist) at a final concentration of 1 nM as a stimulant were added, and incubated in a 5% CO2 incubator at 37° C. for 24 hours. After removing the medium, the CV-1 cells were washed once with PBS (100 μL/well), and supplemented with 60 μL/well of 1× Passive Lysis Buffer (manufactured by Promega Corporation). The CV-1 cells were incubated at room temperature for 30 minutes, stirred, and then by using Dual-Luciferase Reporter Assay System (manufactured by Promega Corporation), luciferase activities of firefly and renilla were measured using 1420 ARVO Multilabel Counter (manufactured by Wallac Oy). Also, the same experiments as that described above were respectively carried out for the cases where only the above-mentioned stimulant (10 nM, 100 nM, 1 μM) were used, where only the above-mentioned test compounds were used, or where neither was used (nonsupplemented), and luciferase activities of firefly and renilla were measured. Values corrected by dividing the firefly luciferase activities by the renilla luciferase activities were calculated as specific activities and used for evaluations. […]
Also, human PPARα agonist activities of the test compounds were evaluated by using a percentage (activity) where the specific activity when nonsupplemented is regarded as 0% and the specific activity in case only 1 μM stimulant was added is regarded as 100%, from the specific activity in case only the test compound is used.
CV-1 cells were cultured in DMEM medium (manufactured by Invitrogen Corporation) including 10% fetal bovine serum (manufactured by Dainippon Pharmaceutical Co., Ltd.) in 225T-Flask (manufactured by Corning Costar). The cells were detached by 0.5 g/L trypsin-0.2 g/L EDTA (ethylene diamine tetra-acetic acid) (manufactured by Invitrogen Corporation), and then suspended in the DMEM medium including 10% fetal bovine serum to a cell concentration of 2×10^5 cells/mL. Thereafter, the cells were seeded into 96 well plate at 2×10^4 cells/0.1 mL/well, incubated in the CO2 incubator at 37° C. overnight, and then the plasmids prepared by the above-mentioned reference 2a, reference 3a, and reference 4a were transfected into cells by using a lipofectamine reagent (manufactured by Invitrogen Corporation) according to the attached manual.
Namely, after CV-1 cells were cultured overnight, the cells were washed with PBS (100 μL/well). Thereafter the cells were incubated for 5 hours at 37° C./5% CO2 in the MEM medium (manufactured by Invitrogen Corporation) including 430 ng/mL of human PPARα expression plasmid (pCI-hPPARa) prepared by the reference 2a, 430 ng/mL of human RXRα expression plasmid (pCI-hRXRa) prepared by the reference 3a, and 140 ng/mL of the reporter plasmid (pGL3-PPRE3-TK) prepared by the reference 4a, 10 ng/mL of phRL-TK vector (manufactured by Promega Corporation) and 2 μL/mL of lipofectamine.

Row | Structure (SMILES) | Human PPARα agonist activities, Activity % (at 1 μM) [%]
1 | CC[C@H](Oc1cccc2c1c1ccccc1n2Cc1ccc(OCc2nc(-c3ccccc3)oc2C)c(OC)c1)C(=O)[O-].[Na+] [Example 38, sodium (S)-(+)-2-{9-[3-methoxy-4-((5-methyl-2-phenyl-oxazole-4-yl)methoxy)-benzyl]-9H-carbazole-4-yloxy}butyrate] | 32
2 | COc1cc(Cn2c3ccccc3c3c(O[C@H](C)C(=O)[O-])cccc32)ccc1OCc1nc(-c2ccccc2)oc1C.[Na+] [Example 43, sodium (R)-2-{9-[3-methoxy-4-((5-methyl-2-phenyl-oxazole-4-yl)methoxy)-benzyl]-9H-carbazole-4-yloxy}propionate] | 35
